Results taken from BindingDB's records for doi:10.1073/pnas.90.8.3452 (The Scripps Research Institute, 1993).

How the values were obtained:
[1] = target: 5-hydroxytryptamine receptor 5A (Rattus norvegicus, UniProt P35364)
[2] = target: 5-hydroxytryptamine receptor 5B (Rattus norvegicus, UniProt P35365)
5-hydroxytryptamine receptor 5B, sequence (P35365 whole entry): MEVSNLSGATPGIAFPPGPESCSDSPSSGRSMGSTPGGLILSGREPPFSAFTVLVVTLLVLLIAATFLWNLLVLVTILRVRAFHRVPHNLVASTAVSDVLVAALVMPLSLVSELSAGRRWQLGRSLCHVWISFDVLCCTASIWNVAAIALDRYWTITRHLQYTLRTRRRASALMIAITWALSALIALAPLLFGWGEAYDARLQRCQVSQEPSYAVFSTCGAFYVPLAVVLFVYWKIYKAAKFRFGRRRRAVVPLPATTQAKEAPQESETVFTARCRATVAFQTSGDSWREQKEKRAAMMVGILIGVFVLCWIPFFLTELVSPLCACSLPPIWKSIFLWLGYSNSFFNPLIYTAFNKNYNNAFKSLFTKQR

5-hydroxytryptamine receptor 5A, sequence (P35364 whole entry): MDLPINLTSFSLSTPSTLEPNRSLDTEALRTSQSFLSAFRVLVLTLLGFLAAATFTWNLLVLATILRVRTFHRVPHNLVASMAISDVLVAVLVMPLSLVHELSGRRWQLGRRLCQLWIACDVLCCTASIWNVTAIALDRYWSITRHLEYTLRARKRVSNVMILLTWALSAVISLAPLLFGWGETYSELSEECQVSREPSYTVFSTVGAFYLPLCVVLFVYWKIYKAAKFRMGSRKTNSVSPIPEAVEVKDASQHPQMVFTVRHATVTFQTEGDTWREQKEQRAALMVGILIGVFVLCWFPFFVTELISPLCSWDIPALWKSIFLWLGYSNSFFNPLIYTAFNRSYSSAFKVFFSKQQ

CCCN(CCC)C1CCc2cccc(O)c2C1 (stereo unspecified)
Ki [1]: 1000 nM
Ki [2]: 1000 nM

CC[C@@H](CO)NC(=O)[C@@H]1C=C2c3cccc4c3c(cn4C)C[C@H]2N(C)C1
Ki [1]: 1000 nM
Ki [2]: 196 nM

NCCc1ccc(O)c(O)c1
Ki [1]: 1000 nM
Ki [2]: 1000 nM

COc1ccc2[nH]cc(CCNC(C)=O)c2c1
Ki [1]: 1000 nM
Ki [2]: 1000 nM

CN1C[C@@H](NS(=O)(=O)N(C)C)C[C@@H]2c3cccc4c3c(cn4C)C[C@H]21 [MESULERGINE]
Ki [1]: 1000 nM
Ki [2]: 1000 nM

CN1C[C@H](CNC(=O)OCc2ccccc2)C[C@@H]2c3cccc4c3c(cn4C)C[C@H]21 [METERGOLINE]
Ki [1]: 1000 nM
Ki [2]: 1000 nM

NCC(O)c1ccc(O)c(O)c1 (stereo not drawn) [Noradrenaline,(+)]
Ki [1]: 1000 nM
Ki [2]: 1000 nM

COc1cc(N)c(Cl)cc1C(=O)NC1CN2CCC1CC2 (stereo unspecified) [ZACOPRIDE,R]
Ki [1]: 1000 nM
Ki [2]: 1000 nM

NCCc1c[nH]c2ccc(O)cc12 [[3H]-5-HT]
Ki [1]: 1330 nM

NCCc1c[nH]c2ccc(C(N)=O)cc12 [[3H]-5-carboxamidotryptamine]
Ki [2]: 12.6 nM

COc1cc(CC(C)N)c(OC)cc1I (stereo unspecified) [[125I]2,5-dimethoxy-4-iodoamphetamine]
Ki [1]: 1000 nM
Ki [2]: 1000 nM

CSc1ccc2c(c1)C(N1CCN(C)CC1)Cc1ccccc1S2 (stereo unspecified) [methanesulfonic acid;1-methyl-4-(3-methylsulfanyl-5,6-dihydrobenzo[b][1]benzothiepin-5-yl)piperazine]
Ki [1]: 146 nM
